The target in the experiment is T1, human GPR40 (Homo sapiens, UniProt O14842).
T1 construct: expressed in transfected cells; host or cells: CHO-K1
T1 sequence (O14842 whole entry): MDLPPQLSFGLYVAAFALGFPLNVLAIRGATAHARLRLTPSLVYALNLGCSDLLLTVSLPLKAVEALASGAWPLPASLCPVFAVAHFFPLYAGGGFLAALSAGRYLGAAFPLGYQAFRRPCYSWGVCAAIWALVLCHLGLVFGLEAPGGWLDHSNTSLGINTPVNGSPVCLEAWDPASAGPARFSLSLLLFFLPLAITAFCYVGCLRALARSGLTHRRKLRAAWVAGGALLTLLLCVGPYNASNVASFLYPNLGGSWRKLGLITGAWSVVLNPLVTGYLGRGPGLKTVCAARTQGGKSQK
Kind of experiment: Induction of Ca2+ (calcium flux assay) using human GPR40 expression cell line. It is filed as cell-based. The following applies: read-out: EC0.5. In outline:
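CHO-K1 cells stably transfected with human GPR40, plated 24 h, loaded 1 h at 37° C with Calcium 5 dye in HBSS/HEPES pH 7.4. Intracellular calcium change after compound addition read on FlexStation; concentration–response of relative activity used to derive EC0.5.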
In general terms: Calcium flux is commonly read through the fluorescence of an indicator in the cells.
On to `O=C(O)CCc1ccc(NCc2ccc3ccn(CC4CCCCC4)c3c2Cl)cc1` [Example 11, 3-{4-[(7-chloro-1-cyclohexylmethyl-1H-indol-6-ylmethyl)-amino]-phenyl}-propanoic acid], for which the EC50 stood at 0.4 µM.

For `CC#C[C@@H](CC(=O)O)c1ccc(OCc2cccc3nn(Cc4ccc(F)cc4)cc23)cc1` [Example 72, (S)-3-{4-[2-(4-fluoro-benzyl)-2H-indazol-4-ylmethoxy]-phenyl}-hex-4-ynoic acid], the EC50 worked out at 0.03 µM.

As for `O=C(O)CC(C1=NOCC1)c1ccc(OCc2ccc3cnn(Cc4ccccc4)c3c2)cc1` (stereo not shown) [Example 65, 3-[4-(1-benzyl-1H-indazol-6-ylmethoxy)-phenyl]-3-(4,5-dihydro-isoxazol-3-yl)-propanoic acid], the EC50 turned out to be 0.05 µM.

With `CC#C[C@@H](CC(=O)O)c1ccc(OCc2ccc(C)c3c2c(F)nn3CC(C)C)cc1` [Example 213, (S)-3-[4-(3-fluoro-1-isobutyl-7-methyl-1H-indazol-4-ylmethoxy)-phenyl]-hex-4-ynoic acid], the EC50 was in the range of 0.001 to 0.05 µM.

For `Cc1c(COc2ccc(CCC(=O)O)cc2)ccc2ccn(-c3ccsc3)c12` [Example 16, 3-[4-(7-methyl-1-thiophen-3-yl-1H-indol-6-ylmethoxy)-phenyl]-propanoic acid], the EC50 was 0.02 µM.

Turning to `CC#C[C@@H](CC(=O)O)c1ccc(OCc2ccnc3c2ccn3C(C)C)cc1` [Example 224, (S)-3-[4-(1-isopropyl-1H-pyrrolo[2,3-b]pyridin-4-ylmethoxy)-phenyl]-hex-4-ynoic acid], the EC50 was determined as 0.027 µM.

Turning to `CC#C[C@@H](CC(=O)O)c1ccc(OCc2ccc3c(COC(C)C)nn(CC(C)C)c3c2)cc1` [Example 193, (S)-3-[4-(1-isobutyl-3-isopropoxymethyl-1H-indazol-6-ylmethoxy)-phenyl]-hex-4-ynoic acid], the EC50 was 0.003 µM.

`Cc1cc(F)ccc1-n1cc(Cl)c2ccc(COc3ccc(CCC(=O)O)cc3)cc21` [Example 22, 3-{4-[3-chloro-1-(4-fluoro-2-methyl-phenyl)-1H-indol-6-ylmethoxy)-phenyl]-propanoic acid]: the EC50 was determined as 0.04 µM.

In the case of `O=C(O)CCc1ccc(OCc2ccc3ccn(CC4CCCCC4)c3c2)cc1` [Example 19, 3-[4-(1-cyclohexylmethyl-1H-indol-6-ylmethoxy)-phenyl]-propanoic acid], the EC50 worked out at 0.4 µM.

Consider `Cc1cc(COc2ccc3c(c2)OCCC3CC(=O)O)cc2cnn(Cc3ccccc3)c12` (stereo not shown) [Example 129, [7-(1-benzyl-7-methyl-1H-indazol-5-ylmethoxy)-chroman-4-yl]-acetic acid], for which the EC50 is 0.08 µM.

For `O=C(O)CC1CCCc2cc(OCc3ccc4cnn(Cc5ccccc5)c4c3)ccc21` (stereo not shown) [Example 110, [6-(1-benzyl-1H-indazol-6-ylmethoxy)-1,2,3,4-tetrahydro-naphthalen-1-yl]-acetic acid], the EC50 worked out at 0.2 µM.

As to `CC(C)n1cc2ccc(COc3ccc([C@H](CC(=O)O)c4ccon4)cc3)cc2n1` [Example 99, (S)-3-[4-(2-isopropyl-2H-indazol-6-ylmethoxy)-phenyl]-3-isoxazol-3-yl-propanoic acid], the EC50 amounted to 1.3 µM.

For the compound `CC#C[C@@H](CC(=O)O)c1ccc(OCc2ccc3cnn(CC(C)(C)C)c3c2)cc1` [Example 182, (S)-3-{4-[1-(2,2-dimethyl-propyl)-1H-indazol-6-ylmethoxy]-phenyl}-hex-4-ynoic acid], the EC50 was 0.001 to 0.05 µM.

For `CC#C[C@@H](CC(=O)O)c1ccc(OCc2ccc3cn(Cc4cnc(C)cn4)nc3c2)cc1` [Example 74, (S)-3-{4-[2-(5-methyl-pyrazin-2-ylmethyl)-2H-indazol-6-ylmethoxy]-phenyl}-hex-4-ynoic acid], the EC50 is at least 0.5 µM.

Turning to `CC#C[C@@H](CC(=O)O)c1ccc(OCc2ccc3ccn(Cc4ccccc4)c3c2C)cc1` [Example 25, (S)-3-[4-(1-benzyl-7-methyl-1H-indol-6-ylmethoxy)-phenyl]-hex-4-ynoic acid], the EC50 was 0.02 µM.

On to `CC#C[C@@H](CC(=O)O)c1ccc(OCc2ccc(C)c3c2cnn3CC(C)C)cc1` [Example 208, (S)-3-[4-(1-isobutyl-7-methyl-1H-indazol-4-ylmethoxy)-phenyl]-hex-4-ynoic acid], for which the EC50 stood at 0.005 µM.

On to `CC#C[C@@H](CC(=O)O)c1ccc(OCc2ccc3c(CN4CCOCC4)nn(CC(C)C)c3c2Cl)cc1` [Example 216, (S)-3-[4-(7-chloro-1-isobutyl-3-morpholin-4-ylmethyl-1H-indazol-6-ylmethoxy)-phenyl]-hex-4-ynoic acid], for which the EC50 was determined as 0.006 µM.

Consider `CC#C[C@@H](CC(=O)O)c1ccc(OCc2ccc3c(CN4CCOCC4)nn(CC(C)C)c3c2C)cc1` [Example 215, (S)-3-[4-(1-isobutyl-7-methyl-3-morpholin-4-ylmethyl-1H-indazol-6-ylmethoxy)-phenyl]-hex-4-ynoic acid], for which the EC50 is 0.01 µM.

Regarding `CC#C[C@@H](CC(=O)O)c1ccc(OCc2cc(C)c3c(cnn3CC(C)C)c2)cc1` [Example 130, (S)-3-[4-(1-isobutyl-7-methyl-1H-indazol-5-ylmethoxy)-phenyl]-hex-4-ynoic acid], the EC50 was 0.001 to 0.05 µM.

Turning to `Cc1cc(COc2ccc3c(c2)OCC3CC(=O)O)cc2cnn(Cc3ccccc3)c12` (stereo not shown) [Example 128, [6-(1-benzyl-7-methyl-1H-indazol-5-ylmethoxy)-2,3-dihydro-benzofuran-3-yl]-acetic acid], the EC50 fell in the range of 0.05 to 0.5 µM.

Consider `CC#C[C@@H](CC(=O)O)c1ccc(OCc2ccc3nn(Cc4ccccc4)cc3c2)cc1` [Example 112, (S)-3-[4-(2-benzyl-2H-indazol-5-ylmethoxy)-phenyl]-hex-4-ynoic acid], for which the EC50 was 0.001 to 0.05 µM.

For the compound `O=C(O)CCc1ccc(NCc2ccc3ccn(-c4ccsc4)c3c2Cl)cc1` [Example 8, 3-{4-[(7-chloro-1-thiophen-3-yl-1H-indol-6-ylmethyl)-amino]-phenyl}-propanoic acid], the EC50 is at least 0.5 µM.

Regarding `Cn1cc(Cc2ccccc2)c2cc(COc3ccc(CCC(=O)O)cc3)ccc21` [Example 20, 3-[4-(3-benzyl-1-methyl-1H-indol-5-ylmethoxy)-phenyl]-propanoic acid], the EC50 amounted to 0.07 µM.

Consider `CC#C[C@@H](CC(=O)O)c1ccc(OCc2ccc3ccn(Cc4ccc(F)cc4F)c3c2C)cc1` [Example 53, (S)-3-{4-[1-(2,4-difluoro-benzyl)-7-methyl-1H-indol-6-ylmethoxy]-phenyl}-hex-4-ynoic acid], for which the EC50 fell in the range of 0.05 to 0.5 µM.

Take `CC#C[C@@H](CC(=O)O)c1ccc(OCc2ccc3cc(CCOC)n(Cc4ccccc4)c3c2)cc1` [Example 34, (S)-3-{4-[1-benzyl-2-(2-methoxy-ethyl)-1H-indol-6-ylmethoxy]-phenyl}-hex-4-ynoic acid]: the EC50 amounted to 0.04 µM.

As for `CC#C[C@@H](CC(=O)O)c1ccc(OCc2ccc3cnn(Cc4cccnc4)c3c2)cc1` [Example 79, (S)-3-[4-(1-pyridin-3-ylmethyl-1H-indazol-6-ylmethoxy)-phenyl]-hex-4-ynoic acid], the EC50 was 0.001 to 0.05 µM.

With `CC#C[C@@H](CC(=O)O)c1ccc(OCc2ccc3c(Cn4cccn4)nn(C(C)C)c3c2)cc1` [Example 202, (S)-3-[4-(1-isopropyl-3-pyrazol-1-ylmethyl-1H-indazol-6-ylmethoxy)-phenyl]-hex-4-ynoic acid], the EC50 was found to be 0.008 µM.

On to `N#CC(CC(=O)O)c1ccc(OCc2ccc3c(cnn3Cc3ccccc3)c2)cc1` (stereo not shown) [Example 162, 3-[4-(1-benzyl-1H-indazol-5-ylmethoxy)-phenyl]-3-cyano-propanoic acid], for which the EC50 stood at 0.02 µM.

Turning to `CC#C[C@@H](CC(=O)O)c1ccc(OCc2ccc3c(CN4CCCC(F)(F)C4)cn(CC(C)C)c3n2)cc1` [Example 232, (S)-3-{4-[3-(3,3-difluoro-piperidin-1-ylmethyl)-1-isobutyl-1H-pyrrolo[2,3-b]pyridin-6-ylmethoxy]-phenyl}-hex-4-ynoic acid], the EC50 was 0.012 µM.

`CC#C[C@@H](CC(=O)O)c1ccc(OCc2ccc3c(C)nn(CC(C)C)c3c2C)cc1` [Example 212, (S)-3-[4-(1-isobutyl-3,7-dimethyl-1H-indazol-6-ylmethoxy)-phenyl]-hex-4-ynoic acid]: the EC50 came out at 0.002 µM.

Regarding `Cc1c(COc2ccc(CCC(=O)O)cc2)ccc2ccn(Cc3ccccc3)c12` [Example 15, 3-[4-(1-benzyl-7-methyl-1H-indol-6-ylmethoxy)-phenyl]-propanoic acid], the EC50 was 0.01 µM.

In the case of `CC#C[C@@H](CC(=O)O)c1ccc(OCc2cc3c(cnn3CC(C)C)cc2F)cc1` [Example 150, (S)-3-[4-(5-fluoro-1-isobutyl-1H-indazol-6-ylmethoxy)-phenyl]-hex-4-ynoic acid], the EC50 is 0.003 µM.

As to `CC#C[C@@H](CC(=O)O)c1ccc(OCc2ccc3c(ccn3Cc3ccccc3)c2)cc1` [Example 123, (S)-3-[4-(1-benzyl-1H-indol-5-ylmethoxy)-phenyl]-hex-4-ynoic acid], the EC50 was in the range of 0.001 to 0.05 µM.

Turning to `CC#C[C@@H](CC(=O)O)c1ccc(OCc2ccc3cnn(Cc4cnccn4)c3c2)cc1` [Example 70, (S)-3-[4-(1-pyrazin-2-ylmethyl-1H-indazol-6-ylmethoxy]-phenyl}-hex-4-ynoic acid], the EC50 fell in the range of 0.05 to 0.5 µM.

Take `CC#C[C@@H](CC(=O)O)c1ccc(OCc2ccc3c(C)nn(C(C)C)c3c2)cc1` [Example 185, (S)-3-[4-(1-isopropyl-3-methyl-1H-indazol-6-ylmethoxy)-phenyl]-hex-4-ynoic acid]: the EC50 was in the range of 0.001 to 0.05 µM.

Regarding `CC#C[C@@H](CC(=O)O)c1ccc(OCc2ccc3c(cnn3Cc3ccccn3)c2)cc1` [Example 141, (S)-3-[4-(1-pyridine-2-ylmethyl-1H-indazol-5-ylmethoxy)-phenyl]-hex-4-ynoic acid], the EC50 was in the range of 0.001 to 0.05 µM.

For the compound `CC(C)Cn1ncc2ccc(COc3ccc([C@H](CC(=O)O)c4ccon4)cc3)cc21` [Example 87, (S)-3-[4-(1-isobutyl-1H-indazol-6-ylmethoxy)-phenyl]-3-isoxazol-3-yl-propanoic acid], the EC50 worked out at 0.01 µM.

The record behind these values is patent US9988379B2, “GPR40 receptor agonist, methods of preparing the same, and pharmaceutical compositions containing the same as an active agent” (LG CHEM, LTD., priority 2012, dated 2018).
